In patent US20160220710A1, “COMPOSITIONS AND METHODS FOR DELIVERING PHARMACEUTICAL AGENTS” (THE REGENTS OF THE UNIVERSITY OF MICHIGAN, priority 2015, published 2016):

Columns and labels:
TLR2 = assay: TNFα ELISA after Pam3 stimulation; format: cell-based, murine; details: Pam3, 2 and 4 μM
Protocol: (§1) The murine macrophage cell line RAW 264.7 was purchased from ATCC (Manassas, Va.) and maintained in DMEM (Life Technologies, Carlsbad, Calif.) supplemented with 10% FBS. Soluble CFZ or isolated CLDIs were added at various concentrations in DMEM with 5% FBS to 6-well plates containing 4×10^5 cells/well and incubated (24 h at 37° C. and 5% CO2). Culture supernatants were harvested at 24 h, centrifuged (1500×g for 5 min), and stored (−20° C.) in frozen aliquots prior to analysis. For experiments involving TLR stimulation, cells were washed twice with pre-warmed DPBS to remove extracellular, non-phagocytosed CLDIs or CFZ, and then the cells were serum-starved for 18 h in DMEM. Supernatants were collected from unstimulated cells and cells stimulated with 200 ng/ml Pam3 or 1 μg/ml LPS in DMEM.
(§2) The media of cells with or without 6 h TLR stimulation by Pam3 or LPS was harvested, and TNFα and IL-1RA levels were measured by ELISA (Duoset, R&D Systems, Minneapolis, Minn.) in duplicate wells according to the manufacturer's instructions. The cytokine concentrations were expressed as picogram per milligram of cell lysate. Experiments were repeated three times and values are expressed as the mean±SD.

[1] = test system: LPS-induced acute lung injury; assay: LPS-induced acute lung injury; format: in vivo, mice
Protocol: Since C57BL/6 mice are relatively resistant towards a single dose of intratracheal (IT) LPS instillation (Matute-Bello G et al., 2008 Am J Physiol Lung Cell Mol Physiol 295(3):L379-99), two IT injections of LPS (16 mg/kg; 50 μl) were administered, one on day 0 and the second on day 3. Briefly, 8 wk CFZ-treated and control mice were anesthetized using intraperitoneal injections of xylazine […]. Under direct visualization of the vocal cords using an otoscope, either LPS or an equivalent volume of PBS in a 1 mL syringe attached to an oral gavage needle (22 G) was instilled into the lungs via the oral route. The mouse was then placed in a temperature-controlled cage (37° C.) for recovery from anesthesia.
The general health status of each PBS/LPS-instilled mice was monitored by measuring body weight and rectal temperature (Microprobe Thermometer, Physitemp Instruments, Clifton, N.J.), and cardiopulmonary function (arterial oxygen saturation, respiratory rate, heart rate and pulse distention) was monitored using MouseOx with a collar clip sensor (Starr Life Sciences Corp, Oakmont, Pa.) as previously described (Lax S et al., (2014) BMJ open Respir Res 1(1):e000014; Nayak S, et al. (2014) PLoS One 9(6):e98336). In brief, one day before IT instillations (D-1) the hair around the neck of each mouse was removed using Nair (Church & Dwight, Princeton, N.J.) to enable data acquisition using the collar clip sensor. The next day (D 0), immediately prior to the first LPS/PBS dose, and every 24 h afterwards until day 6 (D 6), the body weight, temperature and MouseOx readings were recorded. MouseOx data was acquired by very brief anesthesia of the mouse using 5% isoflurane to facilitate the placement of the collar clip sensor. The mouse was then placed in an enclosed chamber with ambient light and allowed to acclimatize for 5 min at which point the animals had recovered normal activities and physiological readings. Arterial oxygen saturation, breath rate, heart rate and pulse distention measurements were then simultaneously recorded for 6 min (15 readings/sec), and any errors caused by motion during recording were excluded, after which the mean value of each parameter was used for further data analysis.
To objectively assess LPS-induced mortality, a multi-parametric scoring system that relied on the daily changes in vital signs associated with inflammatory injury progression and mortality which included arterial oxygen saturation was used (Lax et al., 2014, supra), body weight and temperature (Toth L A (2000) ILAR J 41(2):72-79; Nemzek et al., (2004) Humane endpoints in shock research. Shock 21(1):17-25). First, the percent change from baseline (D 0) in arterial oxygen saturation, body weight, and temperature in each mouse caused by IT instillation of PBS/LPS were measured and calculated daily until day 6 post-instillation. […] These mice were immediately euthanized with ketamine/xylazine and the bronchoalveolar lavage (BAL) and lungs were harvested for cellular and biochemical analysis (see below).
PBS/LPS-instilled CFZ- or control mice were euthanized by exsanguination while deeply anesthetized with an intraperitoneal injection of ketamine/xylazine. The trachea was surgically exposed and cannulated with an 18 G needle and the lungs were lavaged by instilling 1 ml DPBS (Life Technologies) containing 0.5 mM EDTA (Sigma). The retrieved BAL was then centrifuged (10 min at 400×g, 4° C.), and the supernatant was frozen (−80° C.), while the cell pellets were resuspended in 1 ml RPMI 1640 media (Life Technologies). To count total cells, the cells were stained with Trypan blue and counted using a hemocytometer. To distinguish cell types, an aliquot of the cells were dried on glass slides and stained with Diff Stain kit (IMEB Inc, San Marcos, Calif.) according to the manufacturer's instructions. […]

TNFα = TNFα ELISA, non-stimulated cells; format: cell-based, murine; details: non-stimulated RAW 264.7 cells
Protocol: as §1, §2

## CC(C)/N=c1\cc2n(-c3ccc(Cl)cc3)c3ccccc3nc-2cc1Nc1ccc(Cl)cc1 [CFZ, 3-(p-chloroanilino)-10-(p-chlorophenyl)-2, 10-dihydro-2-isopropyliminophenazine]
TLR2
  Pam3/TLR2-mediated TNFα production: Pam3/TLR2-mediated TNFα production was not affected
[1]; 8 wk CFZ-treated, two IT LPS 16 mg/kg
  survival rate: 92%
[1]; after LPS
  TNFα and IL-1RA expression: reduced TNFα and IL-1RA expression after LPS
  arterial oxygen levels vs control mice: significantly higher arterial oxygen levels at day 5 and day 6
  cell count in bronchioalveolar lavage (BAL): significantly less cell count in bronchioalveolar lavage
  number of mice losing more than 15% weight: 1
[1]; after LPS instillation
  lung injury vs control mice: notably less lung injury
[1]; after second LPS injection (day 4)
  body temperature drop vs control mice: more resistant to temperature drop after the second injection
[1]; after the second LPS injection
  heart rate, breathing rate and pulse distention vs control mice: less reduction in heart rate, breathing rate and pulse distention
TNFα
  TNFα production on their own: failed to induce TNFα production
